Consider 2 molecules from patent US20220370545A1, “INTEGRIN RECEPTOR ALPHA V BETA 3 AND ITS LIGAND INVOLVED IN CHRONIC ITCH” (North Carolina State University, priority 2019, published 2022).

Assay [1] relates to non-histamine dependent (CQ) itch in mice. Kind of assay: Chloroquine (CQ)-induced itch in mice. It counts as in vivo, mouse. The settings on record: i.v. cilengitide 100 nM 10 minutes prior to CQ 100 μg/10 μl. How it is done: All behavioral experiments were conducted during the light cycle at ambient temperature (23° C.). Behavioral assessment of scratching behavior was conducted as described previously (Mishra et al., 2011). Briefly, mice were injected intradermal into the nape of the neck with periostin (R&D), histamine, and chloroquine (all Millipore-Sigma) as previously described (Shimada and LaMotte, 2008). Compounds were diluted in PBS and the same was used as a vehicle. […] Additionally, cilengitide and periostin were combined together (mix) and injected i.d. into the dorsal neck of mouse. Scratching behavior was recorded for 30 minutes and data was presented in bouts per 30 minutes for mice. […] For eye wipes assay, periostin and capsaicin were dropped on mouse cornea and counted wipes for 1-minute. […] For dog's study, periostin (25 μg/25 μl) was injected in the dorsal neck (s.c.) and behavior was recorded and quantified for 30 minutes as “duration of pruritus manifestation” (DPM), as described earlier (Paps et al., 2016). […] When different raters separately scored a single tape, the ratings indicated high interrater reliability (coefficient of correlation, r>0.95). This method of itch readout in NHP has been used and accepted (Ko and Naughton, 2000). The behavior was recorded for 30 minutes duration and number of scratches quantified. […]

Assay [2] has as its system Mouse bone marrow-derived mast cells. As to the kind of experiment: Mast cell degranulation (β-hexoseaminidase release). It is filed as cell-based. Conditions: increasing concentrations, 30 minutes challenge. How it is done:
Mouse bone marrow-derived mast cells were cultured from femurs of C57B1/6J mice as described (Jensen et al., 2006). Degranulation was assessed by measuring β-hexoseaminidase release as described (Cruse et al., 2013) using mast cells sensitized with 100 ng/mL anti-DNP IgE (SPE7 clone) (Sigma Aldrich, St. Louis, Miss., United States of America) for 16 hours, before the cells were challenged for 30 minutes with the indicated stimulus.

For the molecule `CC(C)[C@H]1C(=O)N[C@@H](CCCN=C(N)N)C(=O)NCC(=O)N[C@@H](CC(=O)O)C(=O)N[C@H](Cc2ccccc2)C(=O)N1C` [cilengitide, cyclo RGDf-n(Me)V], in assay [1], the “CQ-induced itch (scratching bouts per 30 minutes)” value is given as “inhibits”.

B1: periostin: fasciclin extracellular matrix protein, endogenous ligand of integrin αvβ3; mouse recombinant used (protein)
chain: NSYYDKVLAHSRIRGRDQGPNVCALQQILGTKKKYFSSCKNWYQGAICGKKTTVLYECCPGYMRMEGMKGCPAVMPIDHVYGTLGIVGATTTQHYSDVSKLREEIEGKGSYTYFAPSNEAWENLDSDIRRGLENNVNVELLNALHSHMVNKRMLTKDLKHGMVIPSMYNNLGLFINHYPNGVVTVNCARVIHGNQIATNGVVHVIDRVLTQIGTSIQDFLEAEDDLSSFRAAAITSDLLESLGRDGHFTLFAPTNEAFEKLPRGVLERIMGDKVASEALMKYHILNTLQCSEAITGGAVFETMEGNTIEIGCEGDSISINGIKMVNKKDIVTKNGVIHLIDEVLIPDSAKQVIELAGKQQTTFTDLVAQLGLASSLKPDGEYTLLAPVNNAFSDDTLSMDQRLLKLILQNHILKVKVGLSDLYNGQILETIGGKQLRVFVYRTAICIENSCMVRGSKQGRNGAIHIFREIIQPAEKSLHDKLRQDKRFSIFLSLLEAADLKDLLTQPGDWTLFAPTNDAFKGMTSEERELLIGDKNALQNIILYHLTPGVYIGKGFEPGVTNILKTTQGSKIYLKGVNETLLVNELKSKESDIMTTNGVIHVVDKLLYPADIPVGNDQLLELLNKLIKYIQIKFVRGSTFKEIPMTVYRPAMTKIQIEGDPDFRLIKEGETVTEVIHGEPVIKKYTKIIDGVPVEITEKQTREERIITGPEIKYTRISTGGGETGETLQKFLQKEVSKVTKFIEGGDGHLFEDEEIKRLLQGDTPAKKIPANKRVQGPRRRSREGRSQ
Regarding B1, the “degranulation of anti-DNP IgE-sensitized mast cells” value in assay [2] was “no degranulation”.
